Measured values from patent US8318664B2, “Unacylated ghrelin fragments as therapeutic agent in the treatment of obesity” (Alize Pharma SAS, priority 2007, dated 2012).
Entries after “also recorded” stand apart in the source; their conditions may differ. No end group written: not given here.

Experiments:
human pancreatic islets [1] = assay: Insulin secretion in human pancreatic islets; format: cell-based; settings: peptide 100 nM, glucose absent or 2 to 25 mM
Experimental: The effects of UAG (1-14) and UAG (1-18), both used at 100 nM, were investigated on insulin secretion in human islets. […] UAG (1-28) and Exendin-4 were used as positive controls (FIGS. 8C and 8D).

human pancreatic islets [2] = assay: MTT cell survival assay in human pancreatic islets; format: cell-based; settings: human islet cells, 1 nM to 100 nM
Experimental: The survival effect of UAG (1-14), UAG (1-18), UAG (1-5) and UAG (17-28), with respect to that of full length UAG (1-28), was assessed in human pancreatic islets by MTT. The peptides were tested in islet cells cultured in serum deprived medium, either alone or with IFN-γ/TNF-α/IL-1β (5 ng/ml each).
Human islets were obtained from pancreases of multiorgan donors as described (Ref. 4). Islet preparations with purity >70%, not suitable for transplantation, were provided by European Consortium for Islet Transplantation (ECIT) “Islets for Research Distribution Program,” Transplant Unit, Scientific Institute San Raffaele, Vita-Salute University, Milan. Islets (10,000) were cultured in CMRL (Invitrogen) with 10% FBS.
(§1) Cell survival was assessed by 3-[4,5-dimethylthiazol-2-yl]-2,5diphenyltetrazolium bromide (MTT) as described previously (Ref. 4). Cells were seeded on 96-well plates at a density of 5×10^3 cells/well. After treatments, cells were incubated with 1 mg/ml MTT for ≈1 h. The medium was aspirated, and the formazan product solubilized with 100 μl DMSO. Viability was assessed by spectrophotometry at 570 nm absorbance using a 96-well plate reader.

hamster HIT-T15 β-cells = assay: MTT cell survival assay in HIT-T15 β-cells; format: cell-based; settings: for increase of cell survival: serum-free conditions
Experimental: MTT experiments were also performed in hamster HIT-T15 β-cells, to test the survival effect of UAG (1-28) or its fragments UAG (1-14), UAG (1-18), UAG (1-5) and UAG (17-28) in serum deprived medium, either alone or with IFN-γ/TNF-α/IL-1β. As for the experiments performed on INS-1E β-cells, the peptides were tested at increasing concentrations, ranging from 0.1 nM to 100 nM.
The survival effect of UAG (6-13), UAG (8-13), UAG (8-12), UAG (8-11), UAG (9-12) and UAG (9-11) was assessed in cytokine-treated HIT-T15 β-cells.
The protective effects of peptides UAG (8-13) and UAG (8-12) were found similar to those of UAG (1-14) and UAG (1-18). A peptide made of the inverse sequence of UAG (1-14) and named UAG (14-1), was used as negative control for these experiments (FIG. 5A). […] These effects were however lower than those of UAG (6-13) (FIG. 5B).
UAG fragments with alanine (Ala) substitutions at different amino acid positions (6 to 13) were tested with regards to their survival effects in HIT-T15 hamster β-cells. The cells were cultured in serum deprived medium, either alone or with IFN-γ/TNF-α/IL-1β. The peptides were tested at the concentrations of 1 nM to 100 nM. […] Under treatment with cytokines, where cell survival was reduced by ≈18% with respect to serum starved conditions, all Ala substitutions, except those at positions 10 and 11, completely reversed cell death and brought the survival rate to levels that were even higher than those under serum-free conditions, at both 1 nM and 100 nM concentrations. These effects were similar to those elicited by the original peptide UAG (6-13) (FIG. 11B).
Particularly, the best effect was exerted by Gly 6-UAG (6-13), whereas the lowest was seen using AcSer 6-UAG (6-13), AcSer 6-(D)Pro 7-UAG (6-13) (FIG. 12B).
(§2) Hamster HIT-T15 insulin-secreting β-cells were obtained and cultured as described (Refs. 14, 4). INS-1E rat β-cells were kindly provided by Prof. Claes B. Wollheim (University Medical Center, Geneva, Switzerland) and cultured as described (Refs. 14, 4). Cell culture reagents were from Invitrogen (Milano, Italy). Cytokines were from Biosource (Invitrogen, Italy).
as §1

INS-1E rat β-cells = assay: MTT cell survival assay in INS-1E β-cells; format: cell-based; settings: 0.1 nM to 100 nM
Experimental: The peptides were tested at increasing concentrations, ranging from 0.1 nM to 100 nM.
as §2, §1

[3] = system: UAG receptor on INS-1E pancreatic β-cells; assay: Competition with [125I-Tyr4]-UAG for binding sites on INS-1E membranes; design: species or system rat
Experimental: (§3) The ability of the fragment UAG (6-13) to compete in a concentration-dependent manner with [^125I-Tyr^4]-UAG for HIT-T15 (FIG. 10A) and INS-1E (FIG. 10B) binding sites was assayed. As shown in FIGS. 10A and 10B, unlabelled UAG (1-28) and UAG (6-13) competed with a similar efficacy and in a concentration-dependent fashion with [^125I-Tyr^4]-UAG for such binding sites in both cell lines.
(§4) Membranes from hamster HIT-T15 and rat INS-1E pancreatic β-cells were prepared and assayed for the presence of [^125I-Tyr^4]-UAG binding. The ability of UAG fragments to compete with the radioligand for such binding sites has been evaluated as previously described (Ref. 4). Data are presented as mean±S.E.M. of three independent experiments.

[4] = system: UAG receptor on HIT-T15 pancreatic β-cells; assay: Competition with [125I-Tyr4]-UAG for binding sites on HIT-T15 membranes; design: species or system hamster
Experimental: as §3, §4

HIT-T15 β-cells [5] = assay: Glucose-induced insulin secretion in HIT-T15 β-cells; format: cell-based, hamster; settings: data not shown
Experimental: HIT-T15 cells were plated at density of 5×10^5 cells into 100-mm dishes and serum starved for 24 h before incubation for 1 h at 37° C. in HEPES-buffered Krebs-Ringer bicarbonate buffer (KRBH), containing 0.5% BSA with 1.25 mM glucose. The medium was changed and the cells were incubated again for 1 h in KRBH/0.5% BSA containing 1.25, 7.5 or 15 mM glucose. Following acid ethanol extraction of the hormone, secreted insulin was quantitated by a radioimmunoassay kit (Linco Research, Labodia, Yens, Switzerland) which recognizes human insulin and cross reacts with rat insulin.

HIT-T15 β-cells [6] = assay: Cytokine-induced apoptosis in HIT-T15 β-cells; format: cell-based, hamster
Experimental: HIT-T15 β-cells were cultured for 24 h in serum-free medium, either alone or with IFN-γ/TNF-α/IL-1β. In both cell lines, apoptosis increased under cytokine treatment, with respect to serum starvation alone. […] UAG (14-1), the inverse sequence of UAG (1-14), was used as negative control, whereas UAG (1-28), was used as positive control in each experiment.

[7] = system: STZ-induced diabetic rats; assay: Streptozotocin (STZ)-treated neonatal rats; settings: for animal survival rate: day 9 after STZ
Experimental: Pregnant female Sprague-Dawley rats (n=10, day 14th-15th of pregnancy) were purchased from Harlan Srl (Italy), caged allowing free access to water and fed with a standard pellet rat diet. Natural birth occurred 6-7 days later. […] Dams were randomly assigned to the five groups and pups from the same litter were assigned to the same group. […] Pups were left with their mothers. All neonates were tested on day 2 for glycosuria using Accu-chek compact plus (Roche). Only those animals that were glycosuric at day 2 after birth were included in the STZ model group. […] Animals were killed at day 70 after birth by decapitation. Blood samples were collected after decapitation and immediately centrifuged at 20,000×g for 2 min at 4° C., and stored at −20° C. until assayed.
After excision, pancreases were removed and weighed. For insulin content determination, pancreases (35-50 mg) were homogenized and centrifuged in 5 ml acid-ethanol (0.15 mol/l HCl in 75% [vol/vol]ethanol) at 1,000 g for 20 min; the supernatants were stored at −80° C. For immunohistochemistry, additional pancreases were fixed in 4% paraformaldehyde fixative for 24 h and embedded in paraffin.
Plasma glucose levels were determined using a glucose analyzer. Insulin was measured from pancreases or from plasma by RIA as previously described (Ref. 15).

ob/ob mice = assay: ob/ob mice, 4 weeks infusion by Alzet pump; format: in vivo, mouse
Experimental: Baseline tail vein plasma samples were collected from free-fed and 16 h fasted ob/ob mice 7 and 6 days before pump implantation into K2EDTA coated capillary tubes (Microvette CB300 K2E; Sarstedt, Germany). The animals were then separated into three groups with approximately equivalent weight ranges. Ten week old mice were anesthetized, and a filled Alzet 1004 pump was inserted, delivery portal first, into the peritoneal cavity. The musculoperitoneal and skin layers were then closed using interrupted sutures (Vicryl 5.0 FS-2 absorbable suture). Animals received pumps containing either saline, 10 mg/ml UAG, or 3.5 mg/mL UAG (6-13) (n=8 per group). Alzet 1004 pumps deliver […], and infused 30 μg of hUAG/animal/day (˜600 μg/kg/day) and 10 μg of UAG (6-13)/animal/day (˜200 μg/kg/day).
Blood samples (at 0900-1000) were obtained from fed and fasted animals at weeks 2 and 4 via the tail vein into EDTA Microvette tubes. Glucose levels in tail vein blood were measured directly using a glucometer. On the last day of treatment baseline (fasted) blood samples were taken.
For the experimental data illustrated in FIGS. 14A, 14B, 15 and 16, the animals were obtained from Charles River Laboratories (Maastricht, The Netherlands). Animals (B6.V-Lep^ob/J, Charles River Laboratories, Belgian colony) were received in our animal facilities at 8 weeks of age, and acclimatized in individual cages for 2 weeks before treatments began. They were maintained under standard 12:12 h light:dark conditions, 21° C., and were allowed free access to food and water. The animals were also handled daily to accustom them to the method used for blood collection. The peptides were dissolved in sterile, nonpyrogenic, 0.9% saline (Baxter BV, Utrecht, The Netherlands). D-glucose was obtained from Sigma-Aldrich Chemie BV (Zwijndrecht, The Netherlands), and was dissolved at 400 mg/ml in 0.9% saline. Alzet pumps (model 1004) were obtained from Charles River Laboratories (Maastricht, The Netherlands). Pumps were filled with 0.9% saline, UAG or UAG (6-13) solution under sterile conditions, and pre-incubated in 0.9% saline for at least 48 hours at 37° C. to initiate flow. Blood glucose levels were measured directly from tail vein incisions using a Freestyle mini glucometer and test strips (ART05214 Rev.A; Abbot, Amersfoort, The Netherlands). Plasma insulin levels were assayed by Ultra-sensitive mouse insulin ELISA (Cat. #10-1150-10; Mercodia, Sweden).

[8] = serum deprived medium with IFN-γ/TNF-α/IL-1β

GSSFLSPEHQRVQQRKES [UAG (1-18)]
insulin secretion (human pancreatic islets [1]): significant effect with 7.5 mM glucose
cell survival (MTT) (human pancreatic islets [2]; serum deprived medium alone): significantly increased cell survival at 1 nM and 10 nM
cell survival (MTT) (hamster HIT-T15 β-cells; serum deprived medium alone): significantly increased cell viability; also recorded: potently increased cell survival
cell survival (MTT) (hamster HIT-T15 β-cells; [8]): significantly increased cell viability; also recorded: potently increased cell survival
cell survival (MTT) (INS-1E rat β-cells; serum deprived medium alone): potently increased cell survival
cell survival (MTT) (INS-1E rat β-cells; [8]): potently increased cell survival

GSSFLSPEHQRVQQ [UAG (1-14)]
insulin secretion (human pancreatic islets [1]): significantly increased insulin secretion both in the absence and presence of glucose
binding to the UAG receptor [3]: recognized and bound
binding to the UAG receptor [4]: recognized and bound
cell survival (MTT) (human pancreatic islets [2]; serum deprived medium with IFN-γ/TNF-α/IL-1β (5 ng/ml each)): prevented cell death at 100 nM
glucose-induced insulin secretion (HIT-T15 β-cells [5]): significantly increased glucose-induced insulin secretion
cell survival (MTT) (hamster HIT-T15 β-cells; serum deprived medium alone): significantly increased cell viability; also recorded: potently increased cell survival
cell survival (MTT) (hamster HIT-T15 β-cells; [8]): significantly increased cell viability; also recorded: potently increased cell survival
cell survival (MTT) (INS-1E rat β-cells; serum deprived medium alone): potently increased cell survival
cell survival (MTT) (INS-1E rat β-cells; [8]): potently increased cell survival

exendin-4 [reference compound]
insulin secretion (human pancreatic islets [1]): significantly increased insulin secretion both in the absence and presence of glucose

SPEHQRVQ [UAG (6-13), Ser-Pro-Glu-His-Gln-Arg-Val-Gln]
antiapoptotic effect (cytokine-induced apoptosis) (HIT-T15 β-cells [6]; 24 h serum-free medium with IFN-γ/TNF-α/IL-1β, 1, 10, 100 nM): significantly reduced cytokine-induced apoptosis; also recorded: strongest antiapoptotic effect
cell number and morphology with respect to cytokine condition (HIT-T15 β-cells [6]; cytokine-treated, data not shown): increased the number of cells, induced cell enlargement and small islets formation
animal survival rate ([7]; 30 nmol/l (STZ alone ≈52%)): ≈ 71%
animal survival rate ([7]; 100 nmol/l (STZ alone ≈52%)): 89%
reduction of plasma glucose vs. STZ group ([7]; day 70, 30 nmol/l): 31%
reduction of plasma glucose vs. STZ group ([7]; day 70, 100 nmol/l): 14%
plasma insulin levels ([7]; day 70, STZ-treated rats, UAG (6-13) at both concentrations): increasing insulin levels
gonadal fat weight over the period of treatment (ob/ob mice; mouse, in vivo): did not cause an increase in gonadal fat weight
decrease of gonadal fat pad weight relative to saline treated controls (ob/ob mice; period of treatment (4 weeks), trend p<0.06): approximately 7%
suppression of fasting glucose concentrations from saline treated controls (ob/ob mice; week 4): This effect remained at week 4
fed plasma glucose levels relative to saline controls (ob/ob mice; weeks 2 and 4, no statistically significant effects (RM-ANOVA)): consistent suppressive effect
binding to the UAG receptor [3]: highest binding activity
binding to the UAG receptor [4]: highest binding activity
cell survival (MTT) (hamster HIT-T15 β-cells; [8]): potently inhibited cytokine-induced cell death; also recorded: strongly effective in increasing survival
increase of cell survival (hamster HIT-T15 β-cells; 1 nM): ≈ 18%
increase of cell survival (hamster HIT-T15 β-cells; 100 nM): ≈ 30%
